Measurements reported in patent EP3335720A1, “C-DI-GMP BINDING PEPTIDES” (Universität Basel, priority 2016, dated 2018).
Read-outs that look alike come from different tables or passages of the source. Peptide text beside a SMILES is read from it. * marks the point of attachment. FITC = O=C1OC2(c3ccc(O)cc3Oc3cc(O)ccc32)c2ccc(NC(=S)*)cc21

Columns and labels:
in vitro = in vitro ADME, P. aeruginosa PAO1; conditions: cells or culture medium
Description: P. aeruginosa PAO1 lysate, which was used to test peptide stability, was prepared by the following procedure. 500 ml of cells grown overnight at 37°C were harvested by centrifugation at 5000 rpm, 10 min at 4°C. Pellets were resuspended in 60 ml PBS (Gibco) and centrifuged at 5000 rpm, 10 min at 4°C. Pellets were resuspended again in 20 ml PBS and centrifuged at 5000 rpm, 10 min at 4°C. Cells were disrupted using high-pressure cell disrupter (Stansted Fluid Power). Cell lysate was separated from cell debris by centrifugation at 14,000 rpm for 20 min at 4°C. Lysate was diluted 10 fold to yield a protein content of about 1 mg/ml. The lysate was used for all experiments described below.
The stability of peptides was tested against P. aeruginosa PAO1 cell lysate. About 1 to 3 µg of peptides were incubated with 5 µl P. aeruginosa PAO1 cell lysate or PBS (untreated controls) at 37°C. After 2 hours, 6 µl of 2x SDS sample buffer was added to the samples and heated to 95°C for 5 min. Samples were analyzed on 10-20% Mini-PROTEAN tris-tricine gels (BIO-RAD #4563115) according to manufacturer's recommended protocol. Band intensities were quantified using the program ImageJ (Schneider, C. A., Rasband, W. S. and Eliceiri, K. W. 2012. NIH Image to ImageJ: 25 years of image analysis. Nature methods. 9: 671-675).

c-di-GMP = assay: Binding affinity of peptides to c-di-GMP by isothermal titration calorimetry (ITC); conditions: for Kd: Table 3, peptides with amino acid substitution, 15°C, pH 8.0, read-out: Dissociation constant
Description: Binding affinities of peptides to c-di-GMP were measured using isothermal titration calorimetry (ITC) on a VP-ITC MicroCalorimeter (MicroCal, Northampton, MA, USA). Peptides, c-di-GMP and buffer (50 mM Tris-HCl, pH 8.0, 100 mM NaCl) were degassed for 15 min prior to filling into sample cell and syringe. All experiments were carried out at a temperature of 15°C. The data were evaluated using ITC Data Analysis in ORIGIN provided by the manufacturer.

epithelial HeLa cells = assay: Cytotoxicity assays: resazurin reduction assay and LDH release assay; type: cell-based, human; conditions: 24 hours, Figures 11 and 12
Description: The cytotoxicity of the peptides was determined with a Resazurin cell viability assay (Sigma #R7017). In a 96-well plate (Corning #3904), monolayers of epithelial HeLa ATCC CCL-2 cells were grown in 100 µl growth medium (DMEM (Sigma #D5796) containing 10% FCS). Afterwards, the medium was removed and either replaced by DMEM/10% FCS containing 2-fold serial diluted peptides with a highest concentration of 256 mg/L. After 24 hours, the medium was removed and replaced by 100 µl fresh growth medium. 1% Triton X-100 (Sigma) was used as positive lysis control. 20 µl of resazurin solution (0.1 mg/ml) was added. After 2 hours, the fluorescence signal was recorded using a microplate reader (Synergy H4 BioTek) with an excitation wavelength of 560 nm and emission wavelength 590 nm.
Cells were prepared and treated with peptides as described for the resazurin reduction assay. 24 hours after peptide treatment, control wells were treated with 1% Triton X-100 (Sigma) as lysis control. LDH release was measured using the LDH Cytotoxicity Detection Kit (Clontech). Absorbance was measured at 490 nm using a microplate reader (Synergy H4 BioTek). The percentage of cell death was calculated as follows: (LDH peptide treated - LDH untreated)/(LDH total lysis - LDH untreated)* 100.

[1] = tested on: P. aeruginosa PAO1 biofilms; type: cell-based
Description: The parameter "MBIC50", as used herein, is defined as the peptide concentration leading to 50% biofilm reduction in a standard biofilm assay. Preferably, the medium used for the assay is Mueller-Hinton broth (MHB), since most bacteria can be grown in this medium, and it allows a reliable comparison of MBIC values. MBIC50 values in accordance with the invention are obtained by growing P. aeruginosa at 37°C in presence of different concentrations of peptides, without agitation, for 24 h, followed by staining the adherent biofilm, dissolving the biofilm and measuring the OD600.
The standard biofilm assay (O'Toole G.A., Pratt L.A., Watnick P.I., Newman D.K., Weaver V.B., and Kolter R. 1999. Genetic approaches to study of biofilms. Methods Enzymol. 310: 91-109) was followed with minor modification, i.e. Mueller-Hinton II broth (MHB) (Becton Dickinson #212322) was used instead of lysogenic broth (LB) or minimal medium. MHB is preferred by The European Committee on Antimicrobial Susceptibility Testing (EUCAST) as the medium for MIC determination because most bacteria can be grown in this medium, which allows a more reliable MIC values comparisons. The MBIC50 was defined as the peptide concentration leading to 50% biofilm reduction (de la Fuente-Nunez C., Korolik V., Bains M., Nguyen U., Breidenstein E. B. M., Horsman S., Lewenza S., Burrows L., Hancock, R. E. W. (2012) Inhibition of bacterial biofilm formation and swarming motility by a small synthetic cationic peptide. 56: 2696-2704). MBIC50 values were obtained by growing P. aeruginosa (PAO1) biofilms in 96-well plates (Falcon #353072) in presence of peptides at 37°C without agitation in MHB. After 24 hours, bacterial growth was evaluated by measuring the OD600 in a microtiter plate reader (EL800, BioTek). Afterwards, the plates were rinsed three times with demineralized water to remove non-attached bacteria. The adherent biofilms were stained with 0.1% Crystal Violet and subsequently dissolved in 20% acetic acid. Dissolved biofilms were quantified by measuring the OD600 in a microtiter plate reader.

| Compound | remaining at 2 h (in vitro) [%] | Kd (c-di-GMP) [nM] | also measured |
| --- | --- | --- | --- |
| Ac-DRRRFASADYKGPRRRKAD-NH2 [compound 18] | 1 | 220 | – |
| Ac-DRRRFNSADYKAPRRRKAD-NH2 [compound 24] | 41 | 4070 | – |
| Ac-DRRRFNSADYAGPRRRKAD-NH2 [compound 23] | 42 | 260 | – |
| C[C@H](NC(=O)[C@H](CO)NC(=O)[C@H](CC(N)=O)NC(=O)[C@H](Cc1ccccc1)NC(=O)[C@H](CCCNC(=N)N)NC(=O)[C@H](CCCNC(=N)N)NC(=O)[C@H](CCCNC(=N)N)NC(=O)[C@H](CC(=O)O)NC(=O)[C@H](CCCNC(=N)N)NC(=O)[C@H](CCCNC(=N)N)NC(=O)[C@H](CCCNC(=N)N)NC(=O)[C@H](CCCNC(=N)N)NC(=O)[C@H](CCCNC(=N)N)NC(=O)[C@H](CCCNC(=N)N)NC(=O)[C@H](CCCNC(=N)N)NC(=O)[C@H](CCCNC(=N)N)NC(=S)Nc1ccc2c(c1)C(=O)OC21c2ccc(O)cc2Oc2cc(O)ccc21)C(=O)N[C@@H](CC(=O)O)C(=O)N[C@@H](Cc1ccc(O)cc1)C(=O)N[C@@H](CCCCN)C(=O)NCC(=O)N1CCC[C@H]1C(=O)N[C@@H](CCCNC(=N)N)C(=O)N[C@@H](CCCNC(=N)N)C(=O)N[C@@H](CCCNC(=N)N)C(=O)N[C@@H](CCCCN)C(=O)N[C@@H](C)C(=O)N[C@@H](CC(=O)O)C(N)=O [SEQ ID NO: 48] ({FITC}-RRRRRRRRDRRRFNSADYKGPRRRKAD-NH2) | – | – | concentration up to which no toxic effect was shown (epithelial HeLa cells): ≤ 32 µg/mL |
| Ac-DRRRANSADYKGPRRRKAD-NH2 [SEQ ID NO: 17, AC-DRRRANSADYKGPRRRKAD-NH2] | 70 | – | binding affinity to c-di-GMP, in words (c-di-GMP; compared to the core sequence / peptide of SEQ ID NO: 12): does not significantly reduce binding affinity |
| C[C@H](NC(=O)[C@H](CO)NC(=O)[C@H](CC(N)=O)NC(=O)[C@H](Cc1ccccc1)NC(=O)[C@H](CCCNC(=N)N)NC(=O)[C@H](CCCNC(=N)N)NC(=O)[C@H](CCCNC(=N)N)NC(=O)CNC(=O)[C@H](CC(=O)O)NC(=O)[C@H](CCCNC(=N)N)NC(=O)[C@H](CCCNC(=N)N)NC(=O)[C@H](CCCNC(=N)N)NC(=O)[C@H](CCC(N)=O)NC(=O)[C@H](CCCNC(=N)N)NC(=O)[C@H](CCCNC(=N)N)NC(=O)[C@H](CCCCN)NC(=O)[C@H](CCCCN)NC(=O)[C@H](CCCNC(=N)N)NC(=O)CNC(=O)[C@H](Cc1ccc(O)cc1)NC(=S)Nc1ccc2c(c1)C(=O)OC21c2ccc(O)cc2Oc2cc(O)ccc21)C(=O)N[C@@H](CC(=O)O)C(=O)N[C@@H](Cc1ccc(O)cc1)C(=O)N[C@@H](CCCCN)C(=O)NCC(=O)N1CCC[C@H]1C(=O)N[C@@H](CCCNC(=N)N)C(=O)N[C@@H](CCCNC(=N)N)C(=O)N[C@@H](CCCNC(=N)N)C(=O)N[C@@H](CCCCN)C(=O)N[C@@H](C)C(=O)N[C@@H](CC(=O)O)C(N)=O [SEQ ID NO: 51] ({FITC}-YGRKKRRQRRRDGRRRFNSADYKGPRRRKAD-NH2) | – | – | MBIC50 ([1]; peptide concentration leading to 50% biofilm reduction, MHB, 37°C, 24 hours, without agitation): below 0.25 mg/L; concentration up to which no toxic effect was shown (epithelial HeLa cells): ≤ 64 µg/mL |
| Ac-DARRFNSADYKGPRRRKAD-NH2 [compound 14] | 12 | 1450 | – |
| Ac-DRRRFNSLDYKGPRRRKAD-NH2 [compound 20] | 27 | 100 | – |
| C[C@H](NC(=O)[C@H](CO)NC(=O)[C@H](CC(N)=O)NC(=O)[C@H](Cc1ccccc1)NC(=O)[C@H](CCCNC(=N)N)NC(=O)[C@H](CCCNC(=N)N)NC(=O)[C@H](CCCNC(=N)N)NC(=O)[C@H](CC(=O)O)NC(=S)Nc1ccc2c(c1)C(=O)OC21c2ccc(O)cc2Oc2cc(O)ccc21)C(=O)N[C@@H](CC(=O)O)C(=O)N[C@@H](Cc1ccc(O)cc1)C(=O)N[C@@H](CCCCN)C(=O)NCC(=O)N1CCC[C@H]1C(=O)N[C@@H](CCCNC(=N)N)C(=O)N[C@@H](CCCNC(=N)N)C(=O)N[C@@H](CCCNC(=N)N)C(=O)N[C@@H](CCCCN)C(=O)N[C@@H](C)C(=O)N[C@@H](CC(=O)O)C(N)=O [SEQ ID NO: 43, FITC-DRRRFNSADYKGPRRRKAD-NH2] ({FITC}-DRRRFNSADYKGPRRRKAD-NH2) | – | – | concentration up to which no toxic effect was shown (epithelial HeLa cells): ≤ 64 µg/mL |
| Ac-DRRRFNAADYKGPRRRKAD-NH2 [compound 19] | 30 | 210 | – |
| Ac-DRRRFNSADYKGPRRRKAA-NH2 [compound 31] | 26 | 1750 | – |
| Ac-DRRRFNSADYKGARRRKAD-NH2 [compound 25] | 30 | 350 | – |
| Ac-DRRRFNSADAKGPRRRKAD-NH2 [compound 22] | 39 | 4360 | – |
| Ac-DRRRFNSADYKGPRRRAAD-NH2 [compound 29] | 9 | 270 | – |
| Ac-ARRRFNSADYKGPRRRKAD-NH2 [compound 13] | 56 | 1530 | – |
| Ac-DRRAFNSADYKGPRRRKAD-NH2 [compound 16] | 35 | 780 | – |
| Ac-DRRRFNSADYKGPRRRKAD-NH2 [compound 12] | – | – | MBIC50 ([1]; PAO1, 24 h): 0.25 to 0.5 mg/L |
| Ac-DRRRFNSADYKGPARRKAD-NH2 [compound 26] | 27 | 1830 | – |
| C[C@H](NC(=O)[C@H](CO)NC(=O)[C@H](CC(N)=O)NC(=O)[C@H](Cc1ccccc1)NC(=O)[C@H](CCCNC(=N)N)NC(=O)[C@H](CCCNC(=N)N)NC(=O)[C@H](CCCNC(=N)N)NC(=O)[C@H](CC(=O)O)NC(=S)Nc1ccc2c(c1)C(=O)OC21c2ccc(O)cc2Oc2cc(O)ccc21)C(=O)N[C@@H](CC(=O)O)C(=O)N[C@@H](Cc1ccc(O)cc1)C(=O)N[C@@H](CCCCN)C(=O)NCC(=O)N1CCC[C@H]1C(=O)N[C@@H](CCCNC(=N)N)C(=O)N[C@@H](CCCNC(=N)N)C(=O)N[C@@H](CCCNC(=N)N)C(=O)N[C@@H](CCCCN)C(=O)N[C@@H](C)C(=O)N[C@@H](CC(=O)O)C(N)=O [compound 43] ({FITC}-DRRRFNSADYKGPRRRKAD-NH2) | – | – | MBIC50 ([1]; PAO1, 24 h): 0.25 to 0.5 mg/L |
| Ac-DRRRFNSADYKGPRARKAD-NH2 [compound 27] | 2 | 3950 | – |
| Ac-DRRRFNSAAYKGPRRRKAD-NH2 [compound 21] | 2 | 150 | – |
